This note sets out measurements from PubChem BioAssay AID1033 (Sanford-Burnham Center for Chemical Genomics, 2008).

Calls of active or inactive are those of the source. No rule for the calls is given here.

The target in the test is Chaperone protein DnaK (Escherichia coli (strain K12)) (UniProt P0A6Y8). Description: binders of DnaK substrate-binding domain, biophysical, NMR, chaperone (AID 1033). Conditions: Purified DnaK SBD, NMR ligand binding.
Chaperone protein DnaK (Escherichia coli (strain K12)), sequence (P0A6Y8 whole entry, looked up, the tested form may be a part): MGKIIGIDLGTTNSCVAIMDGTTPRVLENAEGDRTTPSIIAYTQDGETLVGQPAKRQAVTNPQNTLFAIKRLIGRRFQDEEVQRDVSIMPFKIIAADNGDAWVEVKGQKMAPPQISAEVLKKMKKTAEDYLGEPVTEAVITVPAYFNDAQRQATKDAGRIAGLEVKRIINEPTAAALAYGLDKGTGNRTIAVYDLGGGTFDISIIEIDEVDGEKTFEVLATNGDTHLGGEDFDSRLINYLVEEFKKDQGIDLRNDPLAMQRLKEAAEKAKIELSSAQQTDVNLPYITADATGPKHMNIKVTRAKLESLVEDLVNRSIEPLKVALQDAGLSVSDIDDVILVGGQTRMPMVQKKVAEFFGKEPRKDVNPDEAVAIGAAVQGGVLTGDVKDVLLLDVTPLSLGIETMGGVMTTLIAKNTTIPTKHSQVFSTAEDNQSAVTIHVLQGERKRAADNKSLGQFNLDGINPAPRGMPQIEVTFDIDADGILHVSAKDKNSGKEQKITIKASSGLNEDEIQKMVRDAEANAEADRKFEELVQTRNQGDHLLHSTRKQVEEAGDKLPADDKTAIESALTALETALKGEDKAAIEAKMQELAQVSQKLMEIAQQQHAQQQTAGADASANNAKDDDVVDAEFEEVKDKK
As a reminder, the Kd is the constant that tells how readily two partners part at equilibrium. Turning to `O=C1CCCc2c(O)cccc21`, the Kd was > 4 mM (inactive).

In the case of `CC(C)(C)Cc1nc(-c2ccccn2)no1`, the Kd is > 4 mM (inactive).

On to `O=C(O)/C=C/C=C/c1ccccc1`, for which the Kd is > 4 mM (inactive).

`Fc1cc2nccnc2cc1N1CCSCC1`: the Kd was > 4 mM (inactive).

Turning to `CC(=O)Nc1cc(S(=O)(=O)N(C)C)ccc1Cl`, the Kd is > 4 mM (inactive).

On to `O=C1CSC(=Nc2cc(Cl)ccc2Cl)N1`, for which the Kd was > 4 mM (inactive).

As for `O=C(O)c1cnc2sc3ccccc3n2c1=O`, the Kd is > 4 mM (inactive).

Turning to `O=[N+]([O-])c1c[n+]([O-])n(-c2ccccc2)n1`, the Kd was > 4 mM (inactive).

In the case of `CCc1c(C(=O)Nc2ccncc2)csc1C`, the Kd is > 4 mM (inactive).

As for `NC1=NC(=O)/C(=C/c2ccccc2[N+](=O)[O-])S1`, the Kd was > 4 mM (inactive).

Turning to `CCOC(=O)c1cc(C)[nH]n1`, the Kd was > 4 mM (inactive).

With `NC(=O)CS(=O)(=O)c1ccc(Cl)cc1`, the Kd was > 4 mM (inactive).

For the molecule `CCOC(=O)CN1C(=O)c2ccccc2C1=O`, the Kd was > 4 mM (inactive).

On to `COC1=C(OC)C(=O)C(C/C=C(\C)CC/C=C(\C)CC/C=C(\C)CC/C=C(/C)CC/C=C(\C)CC/C=C(\C)CC/C=C(\C)CC/C=C(\C)CC/C=C(\C)CCC=C(C)C)=C(C)C1=O`, for which the Kd was > 4 mM (inactive).

With `Nc1nc(-c2ccc(F)c(F)c2)cs1`, the Kd is > 4 mM (inactive).

Turning to `COc1cc2c(c(OC)c1OC)-c1ccc(O)c(=O)cc1[C@@H](NC(C)=O)CC2`, the Kd was > 4 mM (inactive).

Take `O=C(O)c1ccc2[nH]c3c(c2c1)CSCC3`: the Kd is > 4 mM (inactive).

Regarding `Cc1cc(=O)n2[nH]c(N)nc2n1`, the Kd is > 4 mM (inactive).

As to `Nc1nncn1C(=O)c1c(Cl)cccc1Cl`, the Kd is > 4 mM (inactive).

Consider `Cc1cccc(NC(=O)NC(N)=O)c1`, for which the Kd is > 4 mM (inactive).

Take `O=C(c1ccccc1-c1ccccc1)N1CCOCC1`: the Kd was > 4 mM (inactive).

In the case of `CCCCCCCCCCCC1=C(O)C(=O)C=C(O)C1=O`, the Kd is > 4 mM (inactive).

As for `COc1c(OC)c2occc2c2oc(=O)ccc12`, the Kd is > 4 mM (inactive).

Consider `O=c1[nH]c(N2CCOCC2)nc2ccccc12`, for which the Kd was > 4 mM (inactive).

On to `CS(C)=C1C(=O)NC(=O)N(c2ccccc2)C1=O`, for which the Kd is > 4 mM (inactive).

Turning to `COc1ccc2nc(SCC(N)=O)[nH]c2c1`, the Kd was > 4 mM (inactive).

In the case of `O=CN1CCN(C2CC(=O)N(c3ccccc3)C2=O)CC1` (configuration not stated), the Kd is > 4 mM (inactive).

Consider `CC(=O)O[C@H]1C(=O)[C@@]2(C)C([C@H](OC(=O)c3ccccc3)[C@]3(O)C[C@H](OC(=O)[C@H](O)[C@@H](NC(=O)c4ccccc4)c4ccccc4)C(C)=C1C3(C)C)[C@]1(OC(C)=O)CO[C@@H]1C[C@@H]2O` (some centres not stated), for which the Kd was > 4 mM (inactive).

For the molecule `Cn1c(CO)nc2ccccc21`, the Kd is > 4 mM (inactive).

As to `C=C1CCC2C(CC2(C)C)C(=O)CCC1O` (configuration not stated), the Kd is > 4 mM (inactive).

Regarding `COc1ccc(-c2coc3c(OC)c(OC)cc(O)c3c2=O)cc1`, the Kd is > 4 mM (inactive).

In the case of `CNC(=S)Nc1ccc(C(=O)O)cc1`, the Kd is > 4 mM (inactive).

For the molecule `CN1CCN(S(=O)(=O)c2ccc(=O)[nH]c2)CC1`, the Kd was > 4 mM (inactive).

Take `O=C(O)CCC1=C2c3ccccc3CCN2C(=O)CC1`: the Kd was > 4 mM (inactive).

On to `NC12CC3CC(C1)CC(C(=O)O)(C3)C2`, for which the Kd was > 4 mM (inactive).

With `Cc1ccccc1C(=O)Nn1cnnc1`, the Kd was > 4 mM (inactive).

In the case of `CC(=O)Oc1cccc2ccc(=O)[nH]c12`, the Kd was > 4 mM (inactive).

Regarding `CC(=O)Nc1ccc(-c2nc(C)c(C(C)=O)n2O)cc1`, the Kd was > 4 mM (inactive).

Regarding `CC(=O)c1cnc2nc(C(F)(F)F)nn2c1C`, the Kd is > 4 mM (inactive).

Consider `COC(=O)[C@@H]1OC(=O)C2OC23[C@@]1(C)CCC1[C@]2(C)C(C[C@H](O)[C@]13C)C(C)(C)[C@H](OC(C)=O)C[C@@H]2OC(C)=O` (some centres not stated), for which the Kd was > 4 mM (inactive).

Regarding `Cc1onc(-c2c(F)cccc2Cl)c1C(N)=O`, the Kd was > 4 mM (inactive).

Regarding `Nc1ncnc(NCCOCCO)c1[N+](=O)[O-]`, the Kd is > 4 mM (inactive).

As to `CC(=O)Oc1c2c(c3c(c1CC=C(C)C)O[C@]14C(=C[C@@H]5CC1C(C)(C)OC4(C/C=C(\C)C(=O)O)C5=O)C3=O)OC(C)(CCC=C(C)C)C=C2` (some centres not stated), the Kd is > 4 mM (inactive).

In the case of `Cc1cc(C(F)(F)F)n2nc(C(=O)O)c(Cl)c2n1`, the Kd was > 4 mM (inactive).

With `O=C1NC(=S)N/C1=C/c1ccc(O)c(Cl)c1`, the Kd is > 4 mM (inactive).

With `COC(=O)c1ccc2ncccc2c1`, the Kd is > 4 mM (inactive).

Take `O=C(O)C1CSC(c2cc3ccccc3nc2Cl)N1` (configuration not stated): the Kd is > 4 mM (inactive).

Turning to `CCn1ccc(C(=O)Nc2nccs2)n1`, the Kd is > 4 mM (inactive).

Turning to `CC(=O)NC1=C(N(C)C)C(=O)c2ccccc2C1=O`, the Kd is > 4 mM (inactive).

For `O=C(O)CC(O)c1nc2ccccc2[nH]1` (configuration not stated), the Kd is > 4 mM (inactive).

On to `COc1ccc(-c2cc(=O)c3ccccc3o2)cc1OC`, for which the Kd was > 4 mM (inactive).

Take `O=C(c1cnsn1)N1CCN(c2ccccc2)CC1`: the Kd is > 4 mM (inactive).

Turning to `O=C(O)c1scc2c1CCCC2`, the Kd is > 4 mM (inactive).

Take `Cc1ccc(C2NS(=O)(=O)N=C2N)cc1` (configuration not stated): the Kd was > 4 mM (inactive).

`CC(=O)NCC1(c2ccccc2)CCOCC1`: the Kd is > 4 mM (inactive).

As to `O=C(O)C1CCCN1Cc1c[nH]c2ccccc12` (configuration not stated), the Kd is > 4 mM (inactive).

`COc1cc2c(cc1OC)[C@@H]1C(=O)c3ccc(O)c(CC=C(C)C)c3O[C@@H]1CO2`: the Kd was > 4 mM (inactive).

Turning to `O=C(CSc1ncn[nH]1)c1ccc2c(c1)OCO2`, the Kd was > 4 mM (inactive).

For `Oc1ccccc1-c1nnco1`, the Kd was > 4 mM (inactive).

Consider `Oc1ccccc1-c1cc(C(F)(F)F)[nH]n1`, for which the Kd was > 4 mM (inactive).

Take `O=C(O)[C@H](O)[C@@](O)(Cc1ccc(O)cc1)C(=O)O`: the Kd is > 4 mM (inactive).

In the case of `NC1=NN(c2ccccc2)C(=O)C1`, the Kd was > 4 mM (inactive).

With `CCOC(=O)CNc1ncnc2c1nnn2CC`, the Kd was > 4 mM (inactive).

With `O=C1NC(=Nc2ccccc2)S/C1=C/c1cccnc1`, the Kd is > 4 mM (inactive).

`CC(C)=CC(=O)Nc1ccccc1C(N)=O`: the Kd was > 4 mM (inactive).

For the molecule `OCc1ccc2c(c1)CCO2`, the Kd is > 4 mM (inactive).

As for `CC[C@H](/C=C/C(C)C1CCC2C3CCC4=CC(=O)CC[C@]4(C)C3CC[C@]12C)C(C)C` (some centres not stated), the Kd is > 4 mM (inactive).

`Cc1ccc(C(=O)CS(C)(=O)=O)cc1`: the Kd was > 4 mM (inactive).

Consider `Cc1cc(NC(=O)c2ocnc2C)no1`, for which the Kd was > 4 mM (inactive).

On to `O=C1COc2cc(O)ccc21`, for which the Kd was > 4 mM (inactive).

With `COC(=O)c1ccc2nc[nH]c2c1`, the Kd was > 4 mM (inactive).

For the molecule `Cc1ccc(C(=O)Nc2ccncc2)o1`, the Kd was > 4 mM (inactive).
